Measurements taken from ChEMBL document CHEMBL1201862, “PubChem BioAssay data set” (2004).
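Five compound concentrations were applied to cells in 96-well plates for 48 hours; endpoints were derived by simple linear interpolation of the resulting dose-response curve. GI50: concentration for 50% inhibition of growth.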 The source made the active and inactive calls. No stated cut-off is given here; in the data, active = GI50 up to about 1.1 µM and inactive = higher.

Key:
Assay in all cases: growth of human tumour cells (NCI), 48 h
TK-10 = test system: TK-10
SN12C = test system: SN12C
OVCAR-8 = test system: OVCAR-8
KM12 = test system: KM12
HT-29 = test system: HT-29
OVCAR-5 = test system: OVCAR-5
IGROV-1 = test system: IGROV-1
M14 = test system: M14
RXF 393 = test system: RXF 393
SK-MEL-2 = test system: SK-MEL-2
786-0 = test system: 786-0
SF-295 = test system: SF-295
HOP-92 = test system: HOP-92
A498 = test system: A498
SNB-19 = test system: SNB-19
SW-620 = test system: SW-620
COLO 205 = test system: COLO 205
UO-31 = test system: UO-31
OVCAR-3 = test system: OVCAR-3
NCI-H226 = test system: NCI-H226

Measured: GI50

CSc1nc2nc(C)c(C)nc2c(=O)[nH]1
inactive: TK-10 > 100 µM | SN12C > 100 µM | OVCAR-8 > 100 µM | KM12 > 100 µM | HT-29 > 100 µM | OVCAR-5 > 100 µM | IGROV-1 > 100 µM | M14 > 100 µM | RXF 393 > 100 µM | SK-MEL-2 > 100 µM | 786-0 > 100 µM | SF-295 > 100 µM | HOP-92 > 100 µM | A498 > 100 µM | SNB-19 > 100 µM | SW-620 > 100 µM | COLO 205 > 100 µM | UO-31 > 100 µM | OVCAR-3 > 100 µM

COc1ccc(C(C2C(=O)N(C)C(=O)N(C)C2=O)C(F)(F)C(=O)N(C)C)cc1 (configuration not stated)
inactive: TK-10 > 100 µM | NCI-H226 > 100 µM | OVCAR-8 > 100 µM | KM12 > 100 µM | OVCAR-5 > 100 µM | M14 > 100 µM | RXF 393 > 100 µM | SK-MEL-2 > 100 µM | 786-0 > 100 µM | SF-295 > 100 µM | HOP-92 > 100 µM | A498 > 100 µM | SNB-19 > 100 µM | SW-620 > 100 µM | COLO 205 > 100 µM | UO-31 > 100 µM | OVCAR-3 > 100 µM

COc1ccc(OCC(C)(C)O)cc1
inactive: NCI-H226 > 100 µM | SN12C > 100 µM | OVCAR-8 > 100 µM | KM12 > 100 µM | HT-29 > 100 µM | OVCAR-5 > 100 µM | IGROV-1 > 100 µM | RXF 393 > 100 µM | SK-MEL-2 > 100 µM | SF-295 > 100 µM | HOP-92 > 100 µM | A498 > 100 µM | SNB-19 > 100 µM | SW-620 > 100 µM | COLO 205 > 100 µM | UO-31 > 100 µM | OVCAR-3 > 100 µM

O=CNCNCCO
inactive: TK-10 > 100 µM | NCI-H226 > 100 µM | OVCAR-8 > 100 µM | HT-29 55.1 µM | OVCAR-5 > 100 µM | IGROV-1 > 100 µM | M14 > 100 µM | RXF 393 > 100 µM | SK-MEL-2 > 100 µM | 786-0 > 100 µM | HOP-92 > 100 µM | A498 > 100 µM | SNB-19 > 100 µM | SW-620 46 µM | UO-31 > 100 µM | OVCAR-3 > 100 µM

N#Cc1sc2c(c1OC(=O)c1ccc(Cl)cc1)c(=O)n(-c1ccccc1)c(=S)n2-c1ccccc1
inactive: TK-10 23.3 µM | NCI-H226 26.7 µM | SN12C 21 µM | OVCAR-8 18.1 µM | KM12 14.9 µM | HT-29 22.4 µM | OVCAR-5 25.8 µM | IGROV-1 16.7 µM | M14 20.4 µM | RXF 393 19.7 µM | 786-0 20.5 µM | SF-295 19.2 µM | HOP-92 18.5 µM | A498 21.5 µM | SNB-19 21.9 µM | SW-620 21.2 µM | COLO 205 18.5 µM | OVCAR-3 17.1 µM

COc1ccc(-c2csc3c2[N+]2(C)C=CC=C2C3N2CCCC2)cc1 (configuration not stated)
inactive: TK-10 48.9 µM | NCI-H226 2.21 µM | OVCAR-8 17.5 µM | KM12 15.3 µM | HT-29 16.9 µM | OVCAR-5 39 µM | IGROV-1 11.2 µM | M14 29.8 µM | RXF 393 21.3 µM | SK-MEL-2 10.6 µM | 786-0 41.6 µM | SF-295 10.6 µM | HOP-92 18.7 µM | A498 31.1 µM | SNB-19 26.6 µM | SW-620 24.4 µM | COLO 205 13.6 µM | UO-31 57 µM | OVCAR-3 13.3 µM

CN(C)/N=C(/c1nc2ccc(Cl)cc2nc1O)C(O)c1ccc(C(O)/C(=N\N(C)C)c2nc3ccc(Cl)cc3nc2O)cc1 (configuration not stated)
inactive: TK-10 > 100 µM | SN12C > 100 µM | OVCAR-8 > 100 µM | KM12 > 100 µM | HT-29 > 100 µM | OVCAR-5 > 100 µM | IGROV-1 > 100 µM | M14 > 100 µM | RXF 393 > 100 µM | SK-MEL-2 > 100 µM | 786-0 > 100 µM | SF-295 > 100 µM | HOP-92 81.7 µM | A498 61 µM | SNB-19 > 100 µM | SW-620 > 100 µM | COLO 205 > 100 µM | UO-31 > 100 µM | OVCAR-3 > 100 µM

C(=C\Nc1ccc(Oc2ccccc2)cc1)/C=N/c1ccc(Oc2ccccc2)cc1
inactive: TK-10 18.7 µM | NCI-H226 55.3 µM | SN12C 14.8 µM | OVCAR-8 20.2 µM | KM12 16.4 µM | HT-29 15.9 µM | OVCAR-5 25 µM | IGROV-1 17.1 µM | RXF 393 20 µM | 786-0 16.6 µM | SF-295 15.9 µM | HOP-92 24.3 µM | A498 16.2 µM | SNB-19 17.3 µM | SW-620 19 µM | COLO 205 20 µM | UO-31 18.4 µM | OVCAR-3 19 µM

CN(C)Cc1cc(/N=N/c2ccc(Cl)cc2)ccc1OC(=O)c1ccccc1
inactive: TK-10 15.3 µM | NCI-H226 21.9 µM | SN12C 14.6 µM | OVCAR-8 17 µM | KM12 15.7 µM | HT-29 14.4 µM | OVCAR-5 16.8 µM | IGROV-1 13.2 µM | RXF 393 14.5 µM | 786-0 14.7 µM | SF-295 14.8 µM | HOP-92 2.9 µM | A498 15.5 µM | SNB-19 15 µM | SW-620 16.9 µM | COLO 205 18.4 µM | UO-31 12.6 µM | OVCAR-3 15.7 µM

Cc1ccc(N2Cc3c(ccc4ccccc34)OP2(=O)Oc2ccc(Cl)c(C)c2)cc1 (configuration not stated)
inactive: NCI-H226 > 100 µM | SN12C > 100 µM | OVCAR-8 > 100 µM | KM12 > 84.3 µM | HT-29 > 95.1 µM | OVCAR-5 > 100 µM | IGROV-1 > 100 µM | RXF 393 > 79.4 µM | SK-MEL-2 > 100 µM | SF-295 > 51.2 µM | HOP-92 50 µM | A498 81.5 µM | SNB-19 > 100 µM | SW-620 > 81.8 µM | COLO 205 > 100 µM | UO-31 20.3 µM | OVCAR-3 > 31.6 µM

COc1ccc(C2C3C(=O)C=CC(=O)C3[C@@H]2C)cc1OC (some centres not stated)
inactive: TK-10 > 100 µM | NCI-H226 81.7 µM | OVCAR-8 > 100 µM | KM12 > 100 µM | HT-29 > 100 µM | OVCAR-5 > 100 µM | IGROV-1 > 100 µM | M14 > 100 µM | RXF 393 > 100 µM | SK-MEL-2 > 100 µM | 786-0 40.7 µM | SF-295 > 100 µM | HOP-92 > 100 µM | A498 > 100 µM | SNB-19 12.2 µM | SW-620 42.1 µM | COLO 205 78.5 µM | UO-31 73.5 µM | OVCAR-3 > 100 µM
